This is an account of results in paper PMC9126592, “sp^2-Iminosugars targeting human lysosomal β-hexosaminidase as pharmacological chaperone candidates for late-onset Tay-Sachs disease” (Journal of Enzyme Inhibition and Medicinal Chemistry, 2022).

The target of this assay is T1, recombinant human O-GlcNAcase (hOGA) (Homo sapiens, UniProt O60502).
T1 construct: the N-terminal region of hOGA, comprising amino acids 11–396; the C-terminal region, comprising amino acids 535–715; His6 (N); His6 followed by 3C-protease cleavage site (N); made in house; host or cells: E. coli Bl21(DE3)-Gold
T1 sequence (O60502 11-396): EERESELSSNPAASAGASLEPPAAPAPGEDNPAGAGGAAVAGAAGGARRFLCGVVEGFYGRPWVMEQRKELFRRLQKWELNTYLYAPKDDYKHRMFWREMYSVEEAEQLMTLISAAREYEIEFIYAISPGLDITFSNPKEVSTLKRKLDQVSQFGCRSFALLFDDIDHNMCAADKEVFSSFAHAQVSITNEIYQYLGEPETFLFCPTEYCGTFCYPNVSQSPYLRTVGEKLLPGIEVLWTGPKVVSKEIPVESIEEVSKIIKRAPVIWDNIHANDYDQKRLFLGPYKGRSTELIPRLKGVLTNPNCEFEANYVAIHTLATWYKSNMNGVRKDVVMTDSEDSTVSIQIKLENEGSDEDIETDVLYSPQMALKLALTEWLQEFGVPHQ
T1 sequence (O60502 535-715): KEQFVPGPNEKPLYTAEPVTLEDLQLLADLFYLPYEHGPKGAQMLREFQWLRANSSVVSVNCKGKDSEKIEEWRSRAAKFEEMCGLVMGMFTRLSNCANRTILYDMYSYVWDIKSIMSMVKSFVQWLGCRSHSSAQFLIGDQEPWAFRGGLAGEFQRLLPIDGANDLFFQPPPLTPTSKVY
The experiment in a line: Inhibition of recombinant human O-GlcNAcase (resorufin N-acetyl-β-D-glucosaminide). The assay is classed as biochemical. The note with it: for Ki: recombinant human O-GlcNAcase, read-out: Ki OGA. From the text:
The gene of the longest isoform of hOGA (hOGA-L; Uniprot Accession number: O60502) was synthesised in a codon-optimised form for recombinant expression in Escherichia coli. The successful expression construct encoded the N-terminal region of hOGA, comprising amino acids 11–396, and the C-terminal region, comprising amino acids 535–715. The N-terminal construct was cloned in the vector pACYC-Duet (Millipore) using the sequence and ligation-independent cloning method in frame with an N-terminal His6 tag. The C-terminal construct was cloned into the vector pET-YSBLIC3C27 with an N-terminal His6 tag followed by a 3 C-protease cleavage site using the same method. The nucleotide sequences of all made constructs were confirmed by sequencing. Both vectors were simultaneously transformed into E. coli Bl21(DE3)-Gold (Agilent) for subsequent protein expression. Cells were grown in 2 L TB-medium to an OD600 of ∼1.0 and protein synthesis was then induced by adding IPTG to a final concentration of 0.1 mM. Protein expression was carried out at 16 °C with an induction time of 20 h. The cells were harvested by centrifugation at 4,500 × g for 20 min, flash frozen and stored at −20 °C until required. For purification of the hOGA complex, cells were resuspended in 50 mM HEPES pH 7.0, 750 mM NaCl, 20 mM imidazole, and 0.5 mM DTT (resuspension buffer). Cells were lysed using a French Press at 25 kPsi. The lysate was cleared by centrifugation at 50,000 g for 1 h, and the supernatant was passed through a 10 ml HisTrap FF column (GE Healthcare) pre-equilibrated with resuspension buffer. The bound hOGA was purified by gradient elution over 10 column volumes using 0% to 50% of elution buffer (50 mM HEPES pH 7.0, 750 mM NaCl, 500 mM imidazole and 0.5 mM DTT). hOGA-containing fractions were combined, concentrated by ultrafiltration using Vivaspin columns (Sartorius) with a molecular weight cut-off (MWCO) of 30 kDa, and applied to a Superdex S200 column (GE Healthcare) pre-equilibrated with size-exclusion buffer (10 mM HEPES pH 7.0, 250 mM NaCl, 1 mM DTT). Fractions corresponding to the dimeric form of hOGA were combined and concentrated to 20 mg/mL by ultrafiltration with a Vivaspin (MWCO: 30 kDa) column, flash frozen using liquid nitrogen, and stored at −80 °C until required.
Inhibition assays were run at 0.2 nM [hOGA] in the same buffer, in the presence or absence of various concentrations of inhibitors and at a fixed substrate concentration of 25 µM and 1% DMSO. First, inhibitor was serially diluted to the desired range of concentrations in 2% DMSO buffer. Next, 50 µL of inhibitor solutions at various concentrations in 2% DMSO Buffer was added to 50 μl of 0.8 nM enzyme and allowed to incubate at 25 °C for 5 min. 100 µL of 50 µM and 1% DMSO substrate was then added and reaction mixture was immediately mixed and aliquoted in 45 µL triplicates to a CORNING 384 well black plate. Fluorescence signal was measured continuously for 20 min at 37 °C in a BioTek Neo 2 Plate reader set at excitation and emission wavelengths of 572 and 610 nm, respectively. Max reaction rates for all inhibitor concentrations were calculated within Gen5 BioTek reader software. % Activity was subsequently calculated for each inhibitor concentration against the max reaction rate of uninhibited hOGA.

The Ki is the equilibrium dissociation constant of an inhibitor or competing ligand from its target. With `CCCCNC(=S)N1C[C@H](NC(C)=O)[C@@H](O)[C@@H](O)[C@H]1CO` [Compound 1, 2-Acetamido-1,2-dideoxy-5-N-(N’-butylthiocarbamoyl)galactonojirimycin], the inhibitory constant (Ki) was more than 100 µM.

Take `CCCCCCCCNC(=S)N1C[C@H](NC(C)=O)[C@@H](O)[C@@H](O)[C@H]1CO` [Compound 2, 2-Acetamido-1,2-dideoxy-5-N-(N’-octylthiocarbamoyl)galactonojirimycin]: the inhibitory constant (Ki) is more than 100 µM.

`CC(=O)N[C@H]1CN(C(=S)NCc2ccccc2)[C@H](CO)[C@H](O)[C@@H]1O` [Compound 3, 2-Acetamido-1,2-dideoxy-5-N-(N’-benzylthiocarbamoyl)galactonojirimycin]: the Ki was more than 100 µM.

Turning to `CC(=O)N[C@H]1CN(C(=S)Nc2ccccc2)[C@H](CO)[C@H](O)[C@@H]1O` [Compound 4, 2-Acetamido-1,2-dideoxy-5-N-(N’-phenylthiocarbamoyl)galactonojirimycin], the inhibitory constant (Ki) was more than 100 µM.

As to `CCCCN=C1SCC2C(O)C(O)C(NC(C)=O)CN12` (stereo not drawn) [Compound 5, 2-Acetamido-1,2-dideoxy-5-N,6-S-(N’-butyliminomethylidene)-6-thiogalactonojirimycin], the inhibition constant Ki is more than 100 µM.

`CCCCCCCCN=C1SCC2C(O)C(O)C(NC(C)=O)CN12` (stereo not drawn) [Compound 6, 2-Acetamido-1,2-dideoxy-5-N,6-S-(N’-octyliminomethylidene)-6-thiogalactonojirimycin]: the Ki was more than 100 µM.

In general, IC50 refers to the midpoint of a concentration-inhibition curve. Take `CC(=O)NC1CN2C(=NCc3ccccc3)SCC2C(O)C1O` (stereo not drawn) [Compound 7, 2-Acetamido-1,2-dideoxy-5-N,6-S-(N’-benzyliminomethylidene)-6-thiogalactonojirimycin]: the inhibition constant Ki is 25 µM. For the same compound, the IC50 (read-out: IC50 against OGA) was 25 µM.

On to `CC(=O)NC1CN2C(=Nc3ccccc3)SCC2C(O)C1O` (stereo not drawn) [Compound 8, 2-Acetamido-1,2-dideoxy-5-N,6-S-(N’-phenyliminomethylidene)-6-thiogalactonojirimycin], for which the Ki is more than 100 µM.
